In ChEMBL document CHEMBL1240372, “Murine model of a disseminated infection by the novel fungus Fonsecaea monophora and successful treatment with posaconazole” (Antimicrob Agents Chemother, 2010):
Converted amounts (≈) assume the structure as drawn. The source made the active and inactive calls. No cut-off for these calls is given here.

Tests used:
[1] = Drug level in 1 x 10^6 CFU Fonsecaea monophora CBS 269.37 infected OF1 mouse serum at 1.5 mg/kg, ip qd administered 1 day after infection measured on day 6 after 4 hrs of last treatment; assay type: ADME, organism-based; parameters: dose 1.5 mg/kg, route intraperitoneal; conditions: read-out: Drug uptake
[2] = tested on: Fonsecaea monophora; test: Antifungal activity against 1 x 10^6 CFU Fonsecaea monophora CBS 269.37 infected in […] OF1 mouse assessed as reduction in fungal load in spleen at 1.5 mg/kg, ip qd administered 1 day after infection for 7 days; assay type: functional, organism-based; parameters: dose 1.5 mg/kg
[3] = tested on: Fonsecaea monophora; test: Antifungal activity against 2 x 10^5 CFU Fonsecaea monophora CBS 117236 infected in […] OF1 mouse assessed as reduction in fungal load in lung at 1.5 mg/kg, ip qd administered 1 day after infection for 7 days; assay type: functional, organism-based; parameters: dose 1.5 mg/kg
[4] = tested on: Fonsecaea monophora; test: Antifungal activity against 1 x 10^6 CFU Fonsecaea monophora CBS 269.37 infected in […] OF1 mouse assessed as reduction in fungal load in lung at 1.5 mg/kg, ip qd administered 1 day after infection for 7 days; assay type: functional, organism-based; parameters: dose 1.5 mg/kg
[5] = tested on: Fonsecaea monophora; test: Antifungal activity against Fonsecaea monophora CBS 117236; assay type: functional
[6] = tested on: Fonsecaea monophora; test: Antifungal activity against 2 x 10^5 CFU Fonsecaea monophora CBS 117236 infected in […] OF1 mouse assessed as reduction in fungal load in kidney at 1.5 mg/kg, ip qd administered 1 day after infection for 7 days; assay type: functional, organism-based; parameters: dose 1.5 mg/kg
[7] = tested on: Fonsecaea monophora; test: Antifungal activity against 1 x 10^6 CFU Fonsecaea monophora CBS 269.37 infected in […] OF1 mouse assessed as reduction in fungal load in kidney at 1.5 mg/kg, ip qd administered 1 day after infection for 7 days; assay type: functional, organism-based; parameters: dose 1.5 mg/kg
[8] = tested on: Fonsecaea monophora; test: Antifungal activity against 1 x 10^6 CFU Fonsecaea monophora CBS 269.37 infected in OF1 mouse assessed as increase in mouse survival at 1.5 mg/kg, ip qd administered 1 day after infection for 7 days; assay type: functional, organism-based; parameters: dose 1.5 mg/kg
[9] = tested on: Fonsecaea monophora; test: Antifungal activity against 2 x 10^5 CFU Fonsecaea monophora CBS 117236 infected in […] OF1 mouse assessed as reduction in fungal load in spleen at 1.5 mg/kg, ip qd administered 1 day after infection for 7 days; assay type: functional, organism-based; parameters: dose 1.5 mg/kg
[10] = tested on: Fonsecaea monophora; test: Antifungal activity against Fonsecaea monophora CBS 269.37; assay type: functional
[11] = tested on: Fonsecaea monophora; test: Antifungal activity against 2 x 10^5 CFU Fonsecaea monophora CBS 117236 infected in OF1 mouse assessed as increase in mouse survival at 25 mg/kg, po bid administered 1 day after infection for 7 days; assay type: functional, organism-based; parameters: dose 25 mg/kg
[12] = tested on: Fonsecaea monophora; test: Antifungal activity against 1 x 10^6 CFU Fonsecaea monophora CBS 269.37 infected in po dosed OF1 mouse assessed as reduction in fungal load in lung at 25 mg/kg, po bid administered 1 day after infection for 7 days; assay type: functional, organism-based; parameters: dose 25 mg/kg
[13] = Drug level in 1 x 10^6 CFU Fonsecaea monophora CBS 269.37 infected OF1 mouse serum at 50 mg/kg, po bid administered 1 day after infection measured on day 6 after 4 hrs of last treatment; assay type: ADME, organism-based; parameters: dose 50 mg/kg, route oral; conditions: read-out: Drug uptake
[14] = tested on: Fonsecaea monophora; test: Antifungal activity against 1 x 10^6 CFU Fonsecaea monophora CBS 269.37 infected in po dosed OF1 mouse assessed as reduction in fungal load in spleen at 25 mg/kg, po bid administered 1 day after infection for 7 days; assay type: functional, organism-based; parameters: dose 25 mg/kg
[15] = tested on: Fonsecaea monophora; test: Antifungal activity against 2 x 10^5 CFU Fonsecaea monophora CBS 117236 infected in po dosed OF1 mouse assessed as reduction in fungal load in lung at 25 mg/kg, po bid administered 1 day after infection for 7 days; assay type: functional, organism-based; parameters: dose 25 mg/kg
[16] = tested on: Fonsecaea monophora; test: Antifungal activity against 2 x 10^5 CFU Fonsecaea monophora CBS 117236 infected in po dosed OF1 mouse assessed as reduction in fungal load in spleen at 25 mg/kg, po bid administered 1 day after infection for 7 days; assay type: functional, organism-based; parameters: dose 25 mg/kg
[17] = Drug level in 1 x 10^6 CFU Fonsecaea monophora CBS 269.37 infected OF1 mouse brain at 50 mg/kg, po bid administered 1 day after infection measured on day 6 after 4 hrs of last treatment; assay type: ADME, organism-based; parameters: dose 50 mg/kg, route oral; conditions: read-out: Drug uptake
[18] = tested on: Fonsecaea monophora; test: Antifungal activity against 1 x 10^6 CFU Fonsecaea monophora CBS 269.37 infected in po dosed OF1 mouse assessed as reduction in fungal load in kidney at 25 mg/kg, po bid administered 1 day after infection for 7 days; assay type: functional, organism-based; parameters: dose 25 mg/kg
[19] = tested on: Fonsecaea monophora; test: Antifungal activity against 1 x 10^6 CFU Fonsecaea monophora CBS 269.37 infected in OF1 mouse assessed as increase in mouse survival at 25 mg/kg, po bid administered 1 day after infection for 7 days; assay type: functional, organism-based; parameters: dose 25 mg/kg
[20] = tested on: Fonsecaea monophora; test: Antifungal activity against 2 x 10^5 CFU Fonsecaea monophora CBS 117236 infected in po dosed OF1 mouse assessed as reduction in fungal load in kidney at 25 mg/kg, po bid administered 1 day after infection for 7 days; assay type: functional, organism-based; parameters: dose 25 mg/kg
[21] = Drug level in 1 x 10^6 CFU Fonsecaea monophora CBS 269.37 infected OF1 mouse brain at 10 mg/kg, po qd administered 1 day after infection measured on day 6 after 4 hrs of last treatment; assay type: ADME, organism-based; parameters: dose 10 mg/kg, route oral; conditions: read-out: Drug uptake
[22] = tested on: Fonsecaea monophora; test: Antifungal activity against 2 x 10^5 CFU Fonsecaea monophora CBS 117236 infected in po dosed OF1 mouse assessed as reduction in fungal load in brain compound administered qd 1 day after infection for 7 days; assay type: functional, organism-based
[23] = tested on: Fonsecaea monophora; test: Antifungal activity against 2 x 10^5 CFU Fonsecaea monophora CBS 117236 infected in OF1 mouse assessed as increase in mouse survival at 40 mg/kg, po qd administered 1 day after infection for 7 days; assay type: functional, organism-based; parameters: dose 40 mg/kg
[24] = tested on: Fonsecaea monophora; test: Antifungal activity against 2 x 10^5 CFU Fonsecaea monophora CBS 117236 infected in po dosed OF1 mouse assessed as reduction in fungal load in spleen compound administered qd 1 day after infection for 7 days; assay type: functional, organism-based
[25] = tested on: Fonsecaea monophora; test: Antifungal activity against 1 x 10^6 CFU Fonsecaea monophora CBS 269.37 infected in OF1 mouse assessed as increase in mouse survival at 40 mg/kg, po qd administered 1 day after infection for 7 days; assay type: functional, organism-based; parameters: dose 40 mg/kg
[26] = tested on: Fonsecaea monophora; test: Antifungal activity against 2 x 10^5 CFU Fonsecaea monophora CBS 117236 infected in po dosed OF1 mouse assessed as reduction in fungal load in kidney compound administered qd 1 day after infection for 7 days; assay type: functional, organism-based
[27] = tested on: Fonsecaea monophora; test: Antifungal activity against 1 x 10^6 CFU Fonsecaea monophora CBS 269.37 infected in po dosed OF1 mouse assessed as reduction in fungal load in kidney compound administered qd 1 day after infection for 7 days; assay type: functional, organism-based
[28] = tested on: Fonsecaea monophora; test: Antifungal activity against 2 x 10^5 CFU Fonsecaea monophora CBS 117236 infected in OF1 mouse assessed as increase in mouse body weight at 20 mg/kg, po qd administered 1 day after infection for 7 days; assay type: functional, organism-based; parameters: dose 20 mg/kg
[29] = tested on: Fonsecaea monophora; test: Antifungal activity against 1 x 10^6 CFU Fonsecaea monophora CBS 269.37 infected in OF1 mouse assessed as increase in mouse survival at 20 mg/kg, po qd administered 1 day after infection for 7 days; assay type: functional, organism-based; parameters: dose 20 mg/kg
[30] = Drug level in 1 x 10^6 CFU Fonsecaea monophora CBS 269.37 infected OF1 mouse serum at 20 mg/kg, po qd administered 1 day after infection measured on day 6 after 4 hrs of last treatment; assay type: ADME, organism-based; parameters: dose 20 mg/kg, route oral; conditions: read-out: Drug uptake
[31] = Drug level in 1 x 10^6 CFU Fonsecaea monophora CBS 269.37 infected OF1 mouse serum at 10 mg/kg, po qd administered 1 day after infection measured on day 6 after 4 hrs of last treatment; assay type: ADME, organism-based; parameters: dose 10 mg/kg, route oral; conditions: read-out: Drug uptake
[32] = tested on: Fonsecaea monophora; test: Antifungal activity against 1 x 10^6 CFU Fonsecaea monophora CBS 269.37 infected in po dosed OF1 mouse assessed as reduction in fungal load in brain compound administered qd 1 day after infection for 7 days; assay type: functional, organism-based
[33] = Drug level in 1 x 10^6 CFU Fonsecaea monophora CBS 269.37 infected OF1 mouse brain at 40 mg/kg, po qd administered 1 day after infection measured on day 6 after 4 hrs of last treatment; assay type: ADME, organism-based; parameters: dose 40 mg/kg, route oral; conditions: read-out: Drug uptake
[34] = tested on: Fonsecaea monophora; test: Antifungal activity against 2 x 10^5 CFU Fonsecaea monophora CBS 117236 infected in OF1 mouse assessed as increase in mouse survival at 20 mg/kg, po qd administered 1 day after infection for 7 days; assay type: functional, organism-based; parameters: dose 20 mg/kg
[35] = Drug level in 1 x 10^6 CFU Fonsecaea monophora CBS 269.37 infected OF1 mouse serum at 40 mg/kg, po qd administered 1 day after infection measured on day 6 after 4 hrs of last treatment; assay type: ADME, organism-based; parameters: dose 40 mg/kg, route oral; conditions: read-out: Drug uptake
[36] = tested on: Fonsecaea monophora; test: Antifungal activity against 2 x 10^5 CFU Fonsecaea monophora CBS 117236 infected in OF1 mouse assessed as increase in mouse body weight at 10 mg/kg, po qd administered 1 day after infection for 7 days; assay type: functional, organism-based; parameters: dose 10 mg/kg
[37] = tested on: Fonsecaea monophora; test: Antifungal activity against 1 x 10^6 CFU Fonsecaea monophora CBS 269.37 infected in po dosed OF1 mouse assessed as reduction in fungal load in lung compound administered qd 1 day after infection for 7 days; assay type: functional, organism-based
[38] = tested on: Fonsecaea monophora; test: Antifungal activity against 2 x 10^5 CFU Fonsecaea monophora CBS 117236 infected in po dosed OF1 mouse assessed as reduction in fungal load in lung compound administered qd 1 day after infection for 7 days; assay type: functional, organism-based
[39] = tested on: Fonsecaea monophora; test: Antifungal activity against 1 x 10^6 CFU Fonsecaea monophora CBS 269.37 infected in po dosed OF1 mouse assessed as reduction in fungal load in spleen compound administered qd 1 day after infection for 7 days; assay type: functional, organism-based
[40] = Drug level in 1 x 10^6 CFU Fonsecaea monophora CBS 269.37 infected OF1 mouse brain at 20 mg/kg, po qd administered 1 day after infection measured on day 6 after 4 hrs of last treatment; assay type: ADME, organism-based; parameters: dose 20 mg/kg, route oral; conditions: read-out: Drug uptake
[41] = tested on: Fonsecaea monophora; test: Antifungal activity against 2 x 10^5 CFU Fonsecaea monophora CBS 117236 infected in OF1 mouse assessed as increase in mouse survival at 10 mg/kg, po qd administered 1 day after infection for 7 days; assay type: functional, organism-based; parameters: dose 10 mg/kg

C[C@@H]1[C@H](O)[C@@H](C)/C=C/C=C/C=C/C=C/C=C/C=C/C=C/[C@H](O[C@@H]2O[C@H](C)[C@@H](O)[C@H](N)[C@@H]2O)C[C@@H]2O[C@](O)(C[C@@H](O)C[C@@H](O)[C@H](O)CC[C@@H](O)C[C@@H](O)CC(=O)O[C@H]1C)C[C@H](O)[C@H]2C(=O)O [AMPHOTERICIN B]
concentration at 4 h [1]: 6450 ng/mL
Activity [2]: Active
Activity [3]: Active
Activity [4]: Active
MIC [5]: 1 µg/mL (≈ 1.08 µM)
Activity [6]: Active
Activity [7]: Active
Activity [8]: Active
Activity [9]: Active
MIC [10]: 1 µg/mL (≈ 1.08 µM)

CCC(C)n1ncn(-c2ccc(N3CCN(c4ccc(OCC5COC(Cn6cncn6)(c6ccc(Cl)cc6Cl)O5)cc4)CC3)cc2)c1=O (stereo not given) [ITRACONAZOLE]
Activity [11]: inactive
Activity [12]: Active
concentration at 4 h [13]: 7320 ng/mL
Activity [14]: Active
Activity [15]: Active
MIC [5]: 0.25 µg/mL (≈ 0.354 µM)
Activity [16]: Active
concentration at 4 h [17]: 6880 ng/g
Activity [18]: Active
Activity [19]: inactive
Activity [20]: Active
MIC [10]: 0.5 µg/mL (≈ 0.709 µM)

CC[C@@H]([C@H](C)O)n1ncn(-c2ccc(N3CCN(c4ccc(OC[C@@H]5CO[C@@](Cn6cncn6)(c6ccc(F)cc6F)C5)cc4)CC3)cc2)c1=O [POSACONAZOLE]
concentration at 4 h [21]: 2020 ng/g
Activity [22]: Dose-dependent effect
Activity [23]: Active
Activity [24]: Dose-dependent effect
Activity [25]: Active
Activity [26]: Dose-dependent effect
Activity [27]: Dose-dependent effect
MIC [5]: 0.12 µg/mL (≈ 0.171 µM)
Activity [28]: Active
Activity [29]: Active
concentration at 4 h [30]: 6350 ng/mL
concentration at 4 h [31]: 5170 ng/mL
Activity [32]: Dose-dependent effect
concentration at 4 h [33]: 6730 ng/g
Activity [34]: Active
concentration at 4 h [35]: 9720 ng/mL
Activity [36]: Active
Activity [37]: Dose-dependent effect
Activity [38]: Dose-dependent effect
Activity [39]: Dose-dependent effect
concentration at 4 h [40]: 2840 ng/g
Activity [41]: Active
MIC [10]: 0.25 µg/mL (≈ 0.357 µM)
